These results are taken from paper PMC10196118, “Evidence for broad cross-reactivity of the SARS-CoV-2 NSP12-directed CD4^+ T-cell response with pre-primed responses directed against common cold coronaviruses” (Frontiers in Immunology, 2023).

In this experiment the test system is pre-cultured PBMCs (NSP12-specific T cells). Briefly: IFN-γ ELISpot with single 15-mer peptides after 11–13 days in vitro peptide-pool T-cell expansion. In kind it is cell-based, human. The note with it: for peptide-specific T-cell response, donor HH-N12-18, post COVID-19 / peptide-specific T-cell response, donor HH-N12-34, post COVID-19 / peptide-specific T-cell response, donor HH-N12-35, post COVID-19 / peptide-specific T-cell response, donor HH-N12-36, post COVID-19 / peptide-specific T-cell response, donor HH-N12-37, post COVID-19 / peptide-specific response, donor HH-N12-18, post COVID-19 / peptide-specific response, donor HH-N12-34, post COVID-19 / peptide-specific response, donor HH-N12-35, post COVID-19 / peptide-specific response, donor HH-N12-36, post COVID-19 / peptide-specific response, donor HH-N12-37, post COVID-19: sample post COVID-19; for peptide-specific T-cell response, donor HH-N12-18, post COVID-19 / peptide-specific T-cell response, donor HH-N12-18, pre COVID-19 / peptide-specific T-cell response, donor HH-N12-34, post COVID-19 / peptide-specific T-cell response, donor HH-N12-34, pre COVID-19 / peptide-specific T-cell response, donor HH-N12-35, post COVID-19 / peptide-specific T-cell response, donor HH-N12-35, pre COVID-19 / peptide-specific T-cell response, donor HH-N12-36, post COVID-19 / peptide-specific T-cell response, donor HH-N12-36, pre COVID-19 / peptide-specific T-cell response, donor HH-N12-37, post COVID-19 / peptide-specific T-cell response, donor HH-N12-37, pre COVID-19: single NSP12 15-mer peptide, 0 = no response; for peptide-specific T-cell response, donor HH-N12-18, pre COVID-19 / peptide-specific T-cell response, donor HH-N12-34, pre COVID-19 / peptide-specific T-cell response, donor HH-N12-35, pre COVID-19 / peptide-specific T-cell response, donor HH-N12-36, pre COVID-19 / peptide-specific T-cell response, donor HH-N12-37, pre COVID-19 / peptide-specific response, donor HH-N12-18, pre COVID-19 / peptide-specific response, donor HH-N12-34, pre COVID-19 / peptide-specific response, donor HH-N12-35, pre COVID-19 / peptide-specific response, donor HH-N12-36, pre COVID-19 / peptide-specific response, donor HH-N12-37, pre COVID-19: sample pre COVID-19; for peptide-specific response, donor HH-N12-18, post COVID-19 / peptide-specific response, donor HH-N12-18, pre COVID-19 / peptide-specific response, donor HH-N12-34, post COVID-19 / peptide-specific response, donor HH-N12-34, pre COVID-19 / peptide-specific response, donor HH-N12-35, post COVID-19 / peptide-specific response, donor HH-N12-35, pre COVID-19 / peptide-specific response, donor HH-N12-36, post COVID-19 / peptide-specific response, donor HH-N12-36, pre COVID-19 / peptide-specific response, donor HH-N12-37, post COVID-19 / peptide-specific response, donor HH-N12-37, pre COVID-19: single NSP12 15-mer peptides.

Regarding ASQGLVASIKNFKSV [compound 155], the “peptide-specific T-cell response, donor HH-N12-18, post COVID-19” value is given as 0; the “peptide-specific T-cell response, donor HH-N12-18, pre COVID-19” value turned out to be 0; the “peptide-specific T-cell response, donor HH-N12-34, post COVID-19” value worked out at 0; the “peptide-specific T-cell response, donor HH-N12-34, pre COVID-19” value stood at 0. Further, the “peptide-specific T-cell response, donor HH-N12-35, post COVID-19” value came out at 0; the “peptide-specific T-cell response, donor HH-N12-35, pre COVID-19” value is 0; the “peptide-specific T-cell response, donor HH-N12-36, post COVID-19” value amounted to 0; the “peptide-specific T-cell response, donor HH-N12-36, pre COVID-19” value is on record as 0. Besides, the “peptide-specific T-cell response, donor HH-N12-37, post COVID-19” value is reported as 0 and the “peptide-specific T-cell response, donor HH-N12-37, pre COVID-19” value turned out to be 0.
Consider DAVVCFNSTYASQGL [compound 153], for which the “peptide-specific T-cell response, donor HH-N12-18, post COVID-19” value came out at 0; the “peptide-specific T-cell response, donor HH-N12-18, pre COVID-19” value is on record as 0; the “peptide-specific T-cell response, donor HH-N12-34, post COVID-19” value is on record as 0; the “peptide-specific T-cell response, donor HH-N12-34, pre COVID-19” value is on record as 0. Further, the “peptide-specific T-cell response, donor HH-N12-35, post COVID-19” value was 0; the “peptide-specific T-cell response, donor HH-N12-35, pre COVID-19” value worked out at 0; the “peptide-specific T-cell response, donor HH-N12-36, post COVID-19” value stood at 0; the “peptide-specific T-cell response, donor HH-N12-36, pre COVID-19” value was found to be 0. For the same sequence, the “peptide-specific T-cell response, donor HH-N12-37, post COVID-19” value worked out at 0 and the “peptide-specific T-cell response, donor HH-N12-37, pre COVID-19” value came to 0.
With DFIQTTPGSGVPVVD [compound 45], the “peptide-specific response, donor HH-N12-18, post COVID-19” value is 0; the “peptide-specific response, donor HH-N12-18, pre COVID-19” value is on record as 0; the “peptide-specific response, donor HH-N12-34, post COVID-19” value amounted to 0; the “peptide-specific response, donor HH-N12-34, pre COVID-19” value is recorded as 0.017. Besides, the “peptide-specific response, donor HH-N12-35, post COVID-19” value was 0; the “peptide-specific response, donor HH-N12-35, pre COVID-19” value stood at 0; the “peptide-specific response, donor HH-N12-36, post COVID-19” value worked out at 0; the “peptide-specific response, donor HH-N12-36, pre COVID-19” value worked out at 0. Also, the “peptide-specific response, donor HH-N12-37, post COVID-19” value came out at 0 and the “peptide-specific response, donor HH-N12-37, pre COVID-19” value is listed as 0.
Regarding DIYNDKVAGFAKFLK [compound 8], the “peptide-specific response, donor HH-N12-18, post COVID-19” value turned out to be 0; the “peptide-specific response, donor HH-N12-18, pre COVID-19” value stood at 0; the “peptide-specific response, donor HH-N12-34, post COVID-19” value came to 0; the “peptide-specific response, donor HH-N12-34, pre COVID-19” value is 0. In addition, the “peptide-specific response, donor HH-N12-35, post COVID-19” value came out at 0; the “peptide-specific response, donor HH-N12-35, pre COVID-19” value came to 0; the “peptide-specific response, donor HH-N12-36, post COVID-19” value amounted to 0; the “peptide-specific response, donor HH-N12-36, pre COVID-19” value came to 0. The “peptide-specific response, donor HH-N12-37, post COVID-19” value is 0 and the “peptide-specific response, donor HH-N12-37, pre COVID-19” value worked out at 0.
In the case of DLNGNWYDFGDFIQT [compound 43], the “peptide-specific response, donor HH-N12-18, post COVID-19” value is 0.035; the “peptide-specific response, donor HH-N12-18, pre COVID-19” value is on record as 0; the “peptide-specific response, donor HH-N12-34, post COVID-19” value stood at 0; the “peptide-specific response, donor HH-N12-34, pre COVID-19” value is reported as 0. The “peptide-specific response, donor HH-N12-35, post COVID-19” value is 0; the “peptide-specific response, donor HH-N12-35, pre COVID-19” value was found to be 0; the “peptide-specific response, donor HH-N12-36, post COVID-19” value was found to be 0; the “peptide-specific response, donor HH-N12-36, pre COVID-19” value is listed as 0.028. In addition, the “peptide-specific response, donor HH-N12-37, post COVID-19” value is recorded as 0 and the “peptide-specific response, donor HH-N12-37, pre COVID-19” value was found to be 0.
For the sequence DQTYHPNCVNCLDDR [compound 59], the “peptide-specific response, donor HH-N12-18, post COVID-19” value came out at 0; the “peptide-specific response, donor HH-N12-18, pre COVID-19” value is reported as 0; the “peptide-specific response, donor HH-N12-34, post COVID-19” value is 0; the “peptide-specific response, donor HH-N12-34, pre COVID-19” value is 0. Moreover, the “peptide-specific response, donor HH-N12-35, post COVID-19” value is listed as 0; the “peptide-specific response, donor HH-N12-35, pre COVID-19” value came to 0; the “peptide-specific response, donor HH-N12-36, post COVID-19” value amounted to 0; the “peptide-specific response, donor HH-N12-36, pre COVID-19” value is 0.047. Further, the “peptide-specific response, donor HH-N12-37, post COVID-19” value came to 0 and the “peptide-specific response, donor HH-N12-37, pre COVID-19” value is listed as 0.
Take EDDNLIDSYFVVKRH [compound 13]: the “peptide-specific response, donor HH-N12-18, post COVID-19” value is 0; the “peptide-specific response, donor HH-N12-18, pre COVID-19” value came out at 0; the “peptide-specific response, donor HH-N12-34, post COVID-19” value is listed as 0; the “peptide-specific response, donor HH-N12-34, pre COVID-19” value stood at 0. For the same sequence, the “peptide-specific response, donor HH-N12-35, post COVID-19” value worked out at 0; the “peptide-specific response, donor HH-N12-35, pre COVID-19” value is reported as 0; the “peptide-specific response, donor HH-N12-36, post COVID-19” value is on record as 0; the “peptide-specific response, donor HH-N12-36, pre COVID-19” value turned out to be 0. The “peptide-specific response, donor HH-N12-37, post COVID-19” value is 0 and the “peptide-specific response, donor HH-N12-37, pre COVID-19” value is on record as 0.
FFKFRIDGDMVPHIS [compound 21]: the “peptide-specific response, donor HH-N12-18, post COVID-19” value was 0; the “peptide-specific response, donor HH-N12-18, pre COVID-19” value came out at 0; the “peptide-specific response, donor HH-N12-34, post COVID-19” value came to 0; the “peptide-specific response, donor HH-N12-34, pre COVID-19” value was 0. In addition, the “peptide-specific response, donor HH-N12-35, post COVID-19” value came out at 0; the “peptide-specific response, donor HH-N12-35, pre COVID-19” value worked out at 0; the “peptide-specific response, donor HH-N12-36, post COVID-19” value worked out at 0; the “peptide-specific response, donor HH-N12-36, pre COVID-19” value came to 0. In addition, the “peptide-specific response, donor HH-N12-37, post COVID-19” value is 0 and the “peptide-specific response, donor HH-N12-37, pre COVID-19” value worked out at 0.
FQEKDEDDNLIDSYF [compound 12]: the “peptide-specific response, donor HH-N12-18, post COVID-19” value was 0; the “peptide-specific response, donor HH-N12-18, pre COVID-19” value is 0; the “peptide-specific response, donor HH-N12-34, post COVID-19” value came out at 0; the “peptide-specific response, donor HH-N12-34, pre COVID-19” value is 0. Further, the “peptide-specific response, donor HH-N12-35, post COVID-19” value is 0; the “peptide-specific response, donor HH-N12-35, pre COVID-19” value is 0; the “peptide-specific response, donor HH-N12-36, post COVID-19” value is reported as 0; the “peptide-specific response, donor HH-N12-36, pre COVID-19” value stood at 0. Also, the “peptide-specific response, donor HH-N12-37, post COVID-19” value amounted to 0 and the “peptide-specific response, donor HH-N12-37, pre COVID-19” value came to 0.
Regarding HVDTDLTKPYIKWDL [compound 52], the “peptide-specific response, donor HH-N12-18, post COVID-19” value came out at 0; the “peptide-specific response, donor HH-N12-18, pre COVID-19” value was determined as 0; the “peptide-specific response, donor HH-N12-34, post COVID-19” value is 0; the “peptide-specific response, donor HH-N12-34, pre COVID-19” value is 0. For the same sequence, the “peptide-specific response, donor HH-N12-35, post COVID-19” value is given as 0; the “peptide-specific response, donor HH-N12-35, pre COVID-19” value is given as 0; the “peptide-specific response, donor HH-N12-36, post COVID-19” value is 0; the “peptide-specific response, donor HH-N12-36, pre COVID-19” value is given as 0. Besides, the “peptide-specific response, donor HH-N12-37, post COVID-19” value is given as 0.022 and the “peptide-specific response, donor HH-N12-37, pre COVID-19” value came out at 0.
On to IDSYFVVKRHTFSNY [compound 14], for which the “peptide-specific response, donor HH-N12-18, post COVID-19” value is reported as 0; the “peptide-specific response, donor HH-N12-18, pre COVID-19” value came to 0; the “peptide-specific response, donor HH-N12-34, post COVID-19” value was 0; the “peptide-specific response, donor HH-N12-34, pre COVID-19” value stood at 0. Further, the “peptide-specific response, donor HH-N12-35, post COVID-19” value came out at 0; the “peptide-specific response, donor HH-N12-35, pre COVID-19” value came out at 0; the “peptide-specific response, donor HH-N12-36, post COVID-19” value was 0; the “peptide-specific response, donor HH-N12-36, pre COVID-19” value was 0. Moreover, the “peptide-specific response, donor HH-N12-37, post COVID-19” value is 0 and the “peptide-specific response, donor HH-N12-37, pre COVID-19” value was determined as 0.
